Data reported in US10245237B2, “Compressed tablet containing cannabidiol, method for its manufacture and use of such tablet in oral treatment of psychosis or anxiety disorders” (Echo Pharmaceuticals B.V., priority 2013, dated 2019).

Legend:
[1] = Rate of dissolution of CBD according to Ph. Eur. 2.9.3 for oral tablets; assay type: physicochemical; conditions: 1 wt. % SDS in water, pH 7, 36-41° C.
Method: The rate of dissolution of CBD from the compressed tablets described in Example 2 was tested according to European Pharmacopeia (Ph. Eur. 2.9.3) for oral tablets. The rate of dissolution of pure CBD (20 mg) was determined using the same method.
The dissolution medium consisted of a solution of 1 wt. % SDS in water. The pH of the medium had been adjusted to 7 with diluted HCl. During the experiments, the temperature of the dissolution media was maintained between 36 and 41° C. under stirring. After dropping the tablet in the dissolution medium, samples were taken at various time intervals with a disposable syringe. The samples were filtered immediately over a syringe filter into a HPLC vial and analyzed by HPLC.

[2] = A. J. Poortman, H. Huizer, Forensic Science International (1999); cited from earlier work
schizophrenic patient = conditions: cited from earlier work

C=C(C)[C@@H]1CCC(C)=C[C@H]1c1c(O)cc(CCCCC)cc1O [CBD, cannabidiol]
% (w/w) of CBD dissolved ([1]; 1 min): 2.6 % (w/w) | % (w/w) of CBD dissolved ([1]; 4 min): 9.2 % (w/w) | % (w/w) of CBD dissolved ([1]; 8 min): 18.6 % (w/w) | % (w/w) of CBD dissolved ([1]; 15 min): 27.4 % (w/w) | % (w/w) of CBD dissolved ([1]; 30 min): 35.2 % (w/w) | % (w/w) of CBD dissolved ([1]; 45 min): 42.4 % (w/w) | % (w/w) of CBD dissolved ([1]; 60 min): 45.5 % (w/w) | stability of the drug [2]: unstable | symptom course (schizophrenic patient; patient with schizophrenia, dose doubled every 5 days, at 1280 mg/day): trend for symptom improvement | clinical course during CBD treatment (schizophrenic patient; schizophrenic patient, CBD dissolved in oil up to 1500 mg/day for 4 weeks): significant improvement
